{"source": "patent US8114863B2", "about": "“Compounds comprising short aminoalcohol chains and metal complexes for medical imaging” (Guerbet, priority 2005, dated 2012)", "key": {"[1]": {"test": "Relaxivity measurements (r1 from relaxation times T1/T2, Minispec 120)", "assay_type": "physicochemical", "procedure": "[…] The longitudinal relaxation time T1 is measured using an inversion recovery sequence and the transverse relaxation time T2 is measured by a CPMG technique.\nThe relaxation rates R1 (=1/T1) and R2 (=1/T2) were calculated for different total metal concentrations (varying from 0.1×10^−3 to 1×10^−3 mol/l) in aqueous solution at 37° C. The correlation between R1 or R2 as a function of the concentration is linear and the slope represents the relaxivity r1 (RUC) or r2 (R2/C) expressed as (1/second)×(1/mmol/l), i.e. mM^−1·s^−1.\nThe compounds were prepared in different media: water, NaCl, citrate, phosphate, carbonate, cocktail of ions."}, "[2]": {"test": "Osmolality (Wescor 5220 tonometer)", "assay_type": "physicochemical", "conditions": "at administration dose of the product in man (500 mM; Gadovist 1000 mM)"}, "[3]": {"tested_on": "C6 glioma", "test": "In vivo MRI imaging study, detection of C6 glioma in rat", "conditions": "0.1 mmol/kg, 2.35 T", "procedure": "Compounds II (example 2) was compared to Dotarem® ans MultiHance(® for the detection of C6 glioma in rat (n=6/product). Each animal received all the three products at the same dose (0.1 mmol/kg) in a random order. A minimal delay of 4 hours has been respected between the injections in order to avoid remaining contrast from the previous injection. Enhancement was follow-up during 30 min with a T1w-Spin Echo sequence (TR/TE=498/14.2 ms, FOV=4×4 cm2, slice thickness 2 mm, interslice distance 3 mm, 192×192 matrix, 2 accumulation) on a 2.35 T system (BioSpec 24/40, Bruker, Germany). Enhancement of the lesions have been quantitatively (ROIs) and qualitatively (blinded cotation) evaluated. […] However among the three contrast agents, compound II induced a 2 fold-more pronounced contrast between the lesion and the healthy brain."}}}
{"smiles": "O=C(CCCC(C(=O)O)N1CCN(C(CCCC(=O)NCC(O)CO)C(=O)O)Cc2cccc(n2)CN(C(CCCC(=O)NCC(O)CO)C(=O)O)CC1)NCC(O)CO", "note": "(stereo not shown) [complex 7]", "values": [{"measurement": "relaxivity at 20 MHz", "setting": "[1]; 20 MHz", "value": 14.7, "unit": "mM^−1s^−1 Gd^−1"}, {"measurement": "relaxivity at 40 MHz", "setting": "[1]; 40 MHz", "value": 12.8, "unit": "mM^−1s^−1 Gd^−1"}, {"measurement": "relaxivity at 300 MHz", "setting": "[1]; 300 MHz", "value": 10.4, "unit": "mM^−1s^−1 Gd^−1"}]}
{"smiles": "CNC[C@H](O)[C@@H](O)[C@H](O)[C@H](O)CO.CNC[C@H](O)[C@@H](O)[C@H](O)[C@H](O)CO.O=C([O-])CN(CCN(CC(=O)[O-])CC(=O)O)CCN(CC(=O)[O-])CC(=O)O.[Gd+3]", "note": "[Magnevist ®]", "values": [{"measurement": "Relaxivity r1 at 60 MHz in water", "setting": "[1]", "value": 3.5, "unit": "mM⁻¹ s⁻¹"}, {"measurement": "Osmality (mOsm/kg)", "setting": "[2]", "value": 1950, "unit": "mOsm/kg"}]}
{"smiles": "O=C([O-])CN1CCN(CC(=O)[O-])CCN([C@H](CO)[C@H](O)CO)CCN(CC(=O)[O-])CC1.[Gd+3]", "note": "(racemic) [Gadovist ® (1M)]", "values": [{"measurement": "Osmality (mOsm/kg)", "setting": "[2]", "value": 1400, "unit": "mOsm/kg"}]}
{"smiles": "O=C(O)CCC(C(=O)O)N1CCN(C(CCC(=O)O)C(=O)O)CCN(C(CCC(=O)O)C(=O)O)CCN(C(CCC(=O)O)C(=O)O)CC1", "note": "(stereo not shown)", "values": [{"measurement": "Relaxivity r1 in water (mM − 1s − 1) at 0.5 T", "setting": "[1]", "value": 6.2, "unit": "mM − 1s − 1"}]}
{"smiles": "CNC[C@H](O)[C@@H](O)[C@H](O)[C@H](O)CO.CNC[C@H](O)[C@@H](O)[C@H](O)[C@H](O)CO.O=C([O-])CN(CCN(CC(=O)[O-])CC(=O)O)CCN(CC(=O)O)C(COCc1ccccc1)C(=O)[O-].[Gd+3]", "note": "(stereo not shown) [MultiHance]", "values": [{"measurement": "depiction of the lesions", "setting": "[3]", "value": "All the lesions have been depicted"}]}
{"smiles": "CNC[C@H](O)[C@@H](O)[C@H](O)[C@H](O)CO.O=C([O-])CN1CCN(CC(=O)[O-])CCN(CC(=O)O)CCN(CC(=O)[O-])CC1.[Gd+3]", "note": "[Dotarem ®]", "values": [{"measurement": "Relaxivity r1 at 60 MHz in water", "setting": "[1]", "value": 3.5, "unit": "mM⁻¹ s⁻¹"}, {"measurement": "Osmality (mOsm/kg)", "setting": "[2]", "value": 1350, "unit": "mOsm/kg"}, {"measurement": "depiction of the lesions", "setting": "[3]", "value": "All the lesions have been depicted"}]}
{"smiles": "O=C(O)C(CCO)N1CCN(C(CCO)C(=O)O)Cc2cccc(n2)CN(C(CCO)C(=O)O)CC1", "note": "(stereo not shown) [Comparative Example 9]", "values": [{"measurement": "relaxivity", "setting": "[1]; field not stated", "value": 6}, {"measurement": "Relaxivity r1 in water (mM − 1s − 1) at 0.5 T", "setting": "[1]", "value": 6, "unit": "mM − 1s − 1"}]}
